Measured values taken from patent US20260183306A1, “Methods for Treating Respiratory Diseases Characterized by Mucus Hypersecretion” (The Board of Trustees of the Leland Stanford Junior …, priority 2022, published 2026).
Entries after “also recorded” stand apart in the source; their conditions may differ.

Columns and labels:
[1] = test system: HNEC cultures treated with IL-13; experiment: IL-13 induced chronic inflammation / mucous metaplasia model in ALI HNEC cultures; format: cell-based, human; conditions: for percentage of MCCs after IL-13 remodeling / percentage of mucin positive secretory (mucous) cells after IL-13 remodeling: IL-13 ALI+7 to 14, then DAFT (1 um) or semagacestat (125 nm) ALI+14 to 21; for percentage of MCCs in controls without IL-13: no IL-13, DAFT (1 um) or semagacestat (125 nm) days 14-21
Procedure: Administration of IL-13 to ALI cultures induces goblet cell hyperplasia and is a useful model of chronic inflammation. ALI HNEC cultures were prepared as described in Vladar et al. ALI cultures were treated with and without administration of I1-13 on days 7−14. DAFT (1 um), semagacestat (125 nm) or vehicle control were administered on days 14-21. PFA-fixed cultures were stained for Muc5AC (red; mucin producing secretory cells), Acetylated tubulin (green; MCCs) and E-Cadherin (blue to reveal cell boundaries).
HNEC cultures from a CF patient were treated with IL-13 from ALI+7 to 14 to induce inflammation. […] IL-13 treatment increases the percentage of mucin positive secretory cells and decreases the percentage of MCCs.
To test whether GSI treatment has the ability to restore multiciliated cells in remodeled epithelia with fewer than normal multiciliated cells, healthy donor HNECs were treated with the IL-13 pro-inflammatory cytokine to model mucous metaplasia (7,24). IL-13 treatment from ALI+7 to 14d of culture led to the formation of excess mucus secretory cells, identified by MUCSAC labeling, at the expense of multiciliated cells (FIG. 38A). At ALI+14d, the cytokine was withdrawn, and cultures were treated for one week with LY450139, DAPT or DMSO control.
Primary human nasal epithelial cell (HNEC) cultures. […] Primary air-liquid interface (ALI) culture of nasal epithelial cells from passage 0 (P0) or P1 basal stem cells was carried out as previously described (24,30). Briefly, cells are removed from cytobrushes with gentle enzymatic digestion. P0 HNEC cultures are initiated by seeding freshly isolated cells onto Collagen I coated Transwell filters. P1 HNEC cultures are initiated from basal cells that were first expanded on Collagen I coated plastic dishes in proliferation medium supplemented with Y-27632 (ROCK inhibitor, 10 μM), DMH-1 (BMP inhibitor, 1 μM), A-83-01, (TGF-β inhibitor, 1 μM), and CHIR99021 (WNT agonist, 1 μM)(42), all from Selleckchem. HNECs seeded onto Transwells are initially cultured submerged in proliferation medium until confluency, then lifted to ALI (considered as ALI+0d of culture) by supplying differentiation medium only from the bottom compartment. HNECs are considered mature at ALI+21d of culture. Healthy and CF HNECs used in the study were cultured in homemade media (24). CF HNECs used for the Ussing chamber measurements only were cultured in Pneumacult Ex+(proliferation) and Pneumacult ALI (differentiation) media (Stemcell). […] Healthy HNECs were treated with 10 ng/ml recombinant human IL-13 (RnD Systems).

[2] = test system: primary human nasal epithelial cells (HNECs); experiment: Multiciliated cell (MCC) formation in HNEC air-liquid interface (ALI) cultures; format: cell-based; conditions: for multiciliated cell numbers, treatment during differentiation: differentiation only (ALI+0 to +21d) and continuous (preALI+ALI) treatments; for multiciliated cell formation in mature cultures: mature (ALI+30d) cultures treated one (ALI+30 to +37d) or two weeks (ALI+30 to +44d); for multiciliated cell formation, treatment during proliferation only: pre-ALI only (ALI-5 to -1d)
Procedure: Air-Liquid Interface (ALI) cultures were prepared as described in Vladar E K, Nayak J V, Milla C E, Axelrod J D. Airway epithelial homeostasis and planar cell polarity signaling depend on multiciliated cell differentiation. JCI Insight. 2016; 1(13); e88027. Human nasal epithelial cells (HNECs) were generated from human sinonasal epithelial brushings or from tissue obtained from patients undergoing endoscopic sinus surgery at Stanford Hospital and cultured as described in Vladar et al.
Cultures were treated with varying doses of semagacestat. DAFT (Abcam) was used ([…]) as a positive cone ml for GSI activity. Cultures were labeled at ALI+21 d with anti-acetylated α-tubulin (green) and ECAD (red) antibodies to mark cilia and epithelial junctions. […] The ratio was defined as MCC number/total luminal cells. Counting was done on one representative image from 5 culture replicates from a single donor.
Primary human airway epithelial cells were treated with DAPT and LY45139: i) during proliferation only (ALI-5 to -Id), ii) during differentiation only (ALI+0 to +21d) or iii) continuously during the entire culture duration, followed by labeling at ALI+21d with anti-acetylated α-Tubulin (green) and ECAD (red) antibodies.
Mature (ALI+30d) primary human airway epithelial cells were treated with DAFT and semagacestat for one (ALI+30 to +37d) or two weeks (ALI+30 to +44d), then labeled with anti-acetylated α-Tubulin (green) and ECAD (red) antibodies.
Primary human airway epithelial cells were treated with DAFT and LY45139 during differentiation only (ALI+0 to +21d) from either the apical or basal surface, then labeled at ALI+21d with anti-acetylated α-Tubulin (green) and ECAD (red) antibodies. […] Apical treatment eliminates the air-liquid interface, which results in the poor epithelial structure and multiciliated cell differentiation in the untreated cultures, which is partially rescued by GSI treatment.
While this effect may be beneficial as a therapeutic, DAPT is not suitable for human use. It was sought to identify GSIs for potential therapeutic application among small molecules previously used in clinical trials that were developed to have acceptable drug-like properties. […] Healthy human nasal epithelial cell (HNEC) primary cultures were grown at air-liquid interface (ALI) in homemade culture medium to support the consistent differentiation of multiciliated cells as approximately 45-55% of the luminal cells, similar to the in vivo airways (24) (FIG. 35A, 40A). The use of homemade culture medium is important, as cultures grown in commercially available Pneumacult medium often contain 85-95% multiciliated cells at the luminal surface (FIG. S4A). HNECs were treated with a low and high dose (based on IC50 for Notch inhibition, Selleckchem) of each compound during the entire 21 days of ALI differentiation (ALI+0 to 21d). The fraction of mature multiciliated cells was quantitated using wholemount ac. α-Tubulin antibody (marks ciliary axonemes) labeling. […] DMSO control treatment had no effect on multiciliated cell number (FIG. 40A).
HNEC primary culture comprises an initial proliferative phase when basal stem cells establish the epithelial layer under submerged culture conditions (preALI), followed by differentiation induced, in part, by lifting to ALI (30). Thus, HNECs can be used to test GSI response in both regenerative and homeostatic settings. Notch signaling between luminal cells controls epithelial cell fate, but it is also active in basal cells and regulates their differentiation and survival (14,18,31). Thus, it was asked if the GSIs LY450139 or DAFT during the proliferative preALI phase only or during the entire culture duration (proliferative+differentiation; preALI+ALI) can induce multiciliated cell formation and if GSI treatment during stem cell proliferation has detrimental effects. PreALI, GSIs was added to both the apical and basal media, and during ALI, cultures were only treated basally. […]

Row | Compound | percentage of MCCs after IL-13 remodeling [1] | percentage of mucin positive secretory (mucous) cells after IL-13 remodeling [1] | percentage of MCCs after IL-13 remodeling ([1]; listed as DAFT) | percentage of mucin positive secretory (mucous) cells after IL-13 remodeling ([1]; listed as DAFT) | percentage of MCCs in controls without IL-13 [1] | percentage of MCCs in controls without IL-13 ([1]; listed as DAFT) | multiciliated cell formation by apical versus basal application ([2]; ALI+0 to +21d from either the apical or basal surface, listed as DAFT) | ratio MCC number/total luminal cells ([2]; I μM DAPT, labeled at ALI+21 d, vs untreated, p<0.01 by ANOVA) | number of multiciliated cells, apical only treatment of submerged cultures ([2]; apical only, submerged cultures, vs untreated submerged cells) | multiciliated cell numbers, treatment during differentiation [2] | multiciliated cell numbers, treatment during differentiation ([2]; listed as DAFT) | multiciliated cell formation in mature cultures [2] | multiciliated cell formation in mature cultures ([2]; listed as DAFT) | multiciliated cell formation, treatment during proliferation only ([2]; labeled ALI+21d) | multiciliated cell formation, treatment during proliferation only ([2]; labeled ALI+21d, listed as DAFT) | effect on Notch signaling and differentiation towards MCCs ([2]; administered in the nanomolar range to human nasal epithelial cells) | toxicity / disruption of epithelial structure at high concentration ([2]; high concentration, micromolar doses (10 μM for LY450139), ALI+0 to +21d) | multiciliated cell formation at the low concentration ([2]; low dose (based on IC50 for Notch inhibition), ALI+0 to +21d, labeled ALI+21d)
1 | C[C@H](NC(=O)Cc1cc(F)cc(F)c1)C(=O)NC(C(=O)OC(C)(C)C)c1ccccc1 (stereo partly drawn) [DAPT] | significantly increased their proportion of multiciliated cell numbers; also recorded: increasing the percentage of MCCs | reduction in the proportion of mucous cells; also recorded: decreasing the percentage of mucin positive secretory cells | increasing the percentage of MCCs; also recorded: induced multiciliated cell formation to levels comparable to healthy epithelia | decreasing the percentage of mucin positive secretory cells | increase the percentage of MCCs in controls | increase the percentage off MCCs in controls | induces ciliated cell formation via both apical and basal application; also recorded: induces multiciliated cell formation via both apical and basal application | significant increases | approximately double the number of multiciliated cells | increased MCC cell numbers; also recorded: increased multiciliated cell numbers | significant increase in the proportion of multiciliated cells | induces the formation of additional multiciliated cells in mature cultures | induces the formation of additional multiciliated cells in mature cultures; also recorded: robust induction of multiciliated cell formation | had no effect on differentiation; also recorded: no detrimental effect on multiciliated cells or overall epithelial structure | not sufficient to induce extra multiciliated cell formation |  |  | 
2 | O=C(O)CC[C@H]1CC[C@@](c2cc(F)ccc2F)(S(=O)(=O)c2ccc(Cl)cc2)CC1 [MK-0752] |  |  |  |  |  |  |  |  |  |  |  |  |  |  |  | effective in blocking Notch signaling, driving differentiation towards MCCs | disrupted epithelial structure | induced multiciliated cell formation; also recorded: able to induce the formation of extra multiciliated cells
